Data taken from patent US20240368120A1 (Terns Pharmaceuticals, Inc., priority 2023, published 2024).
pEC50: −log10 of the molar value.

Biological target: T1, human GLP-1R receptor (Homo sapiens, UniProt P43220)
T1 construct: expressed in transfected cells
Test: GLP-1R low expression cell assay (cAMP TR-FRET, CHO-K1_hGLP-1Rlow_clone10 cells)
Format: cell-based
Conditions: for pEC50: cAMP TR-FRET, 30 min at 25° C.; for Emax: maximum activation relative to control GLP-1 peptide agonist
How it was run: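 Readout is cAMP TR-FRET after 30 min compound stimulation at 25 °C of a low-GLP-1R-expressing CHO-K1 clone (1,000 cells/well), with 10-point 3-fold serial dilutions. Percent activation versus a control GLP-1 peptide, from duplicates, was Hill-fitted to give EC50.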

T1 sequence (P43220 24-463): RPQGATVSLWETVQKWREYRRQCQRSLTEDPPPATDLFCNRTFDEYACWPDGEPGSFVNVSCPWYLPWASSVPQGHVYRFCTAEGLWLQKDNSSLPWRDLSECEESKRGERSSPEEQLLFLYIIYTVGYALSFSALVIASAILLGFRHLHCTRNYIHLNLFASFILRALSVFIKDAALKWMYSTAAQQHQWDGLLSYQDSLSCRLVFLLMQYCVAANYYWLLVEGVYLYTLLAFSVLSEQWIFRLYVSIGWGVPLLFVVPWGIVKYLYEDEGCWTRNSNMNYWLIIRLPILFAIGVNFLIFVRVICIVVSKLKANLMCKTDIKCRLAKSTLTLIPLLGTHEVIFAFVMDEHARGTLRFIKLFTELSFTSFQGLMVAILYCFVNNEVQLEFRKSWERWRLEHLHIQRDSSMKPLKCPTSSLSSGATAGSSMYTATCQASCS

| Compound | pEC50 | Emax [%] |
| --- | --- | --- |
| O=C(O)c1ccc2nc(CN3CCC(c4cccc(OCc5ccc(Cl)cc5F)n4)CC3)[nH]c2c1O [Compound 204, 2-((4-(6-((4-Chloro-2-fluorobenzyl)oxy)pyridin-2-yl)piperidin-1-yl)methyl)-7-hydroxy-1H-benzo[d]imidazole-6-carboxylic acid] | < 6.00 | > 85 |
| COc1cc(C(=O)O)c(F)c2c1nc(CN1CCC(c3ccc(F)c(OCc4ccc(C#N)cc4F)c3)CC1)n2C [Compound 339, 2-((4-(3-((4-Cyano-2-fluorobenzyl)oxy)-4-fluorophenyl)piperidin-1-yl)methyl)-7-fluoro-4-methoxy-1-methyl-1H-benzo[d]imidazole-6-carboxylic acid] | 6.00 to 7.00 | > 85 |
| Cn1c(CN2CCC(c3cccc(OCc4ccc(Cl)cc4F)n3)CC2)nc2c(O[C@H]3C[C@H](F)C3)cc(C(=O)O)cc21 [Compound 353, 2-((4-(6-((4-Chloro-2-fluorobenzyl)oxy)pyridin-2-yl)piperidin-1-yl)methyl)-4-((1r,3r)-3-fluorocyclobutoxy)-1-methyl-1H-benzo[d]imidazole-6-carboxylic acid] | 7.00 to 8.00 | > 85 |
| CO[C@H]1C[C@H](Oc2cc(C(=O)O)cc3c2nc(CN2CCC(c4cccc(OCc5ccc(C#N)cc5F)n4)CC2)n3C)C1 [Compound 317, 2-((4-(6-((4-Cyano-2-fluorobenzyl)oxy)pyridin-2-yl)piperidin-1-yl)methyl)-4-((1r,3r)-3-methoxycyclobutoxy)-1-methyl-1H-benzo[d]imidazole-6-carboxylic acid] | 6.00 to 7.00 | > 85 |
| N#Cc1ccc(COc2cccc(C3CCN(Cc4nc5ccc(C(=O)O)c6c5n4CCO6)CC3)n2)c(F)c1 [Compound 104, 2-((4-(6-((4-Cyano-2-fluorobenzyl)oxy)pyridin-2-yl)piperidin-1-yl)methyl)-3,4-dihydro-5-oxa-1,2a-diazaacenaphthylene-6-carboxylic acid] | 6.00 to 7.00 | > 85 |

Other lines, results leading:

| pEC50 | Emax [%] | Compound |
| --- | --- | --- |
| 7.00 to 8.00 | > 85 | CC(=O)Nc1cc(C(=O)O)cc2c1nc(CN1CCC(c3cccc(OCc4ccc(C#N)cc4F)n3)CC1)n2C [Compound 116, 4-acetamido-2-((4-(6-((4-cyano-2-fluorobenzyl)oxy)pyridin-2-yl)piperidin-1-yl)methyl)-1-methyl-1H-benzo[d]imidazole-6-carboxylic acid] |
| 6.00 to 7.00 | > 85 | Cn1c(CN2CCC(c3cccc(F)c3OCc3ccc(C#N)cc3F)CC2)nc2c(OC(F)F)cc(C(=O)O)cc21 [Compound 182, 2-((4-(2-((4-Cyano-2-fluorobenzyl)oxy)-3-fluorophenyl)piperidin-1-yl)methyl)-4-(difluoromethoxy)-1-methyl-1H-benzo[d]imidazole-6-carboxylic acid] |
| 7.00 to 8.00 | > 85 | C[C@H](F)Oc1cc(C(=O)O)cc2c1nc(CN1CCC(c3cccc(OCc4ccc(C#N)cc4F)n3)CC1)n2C [Compound 313, (S)-2-((4-(6-((4-Cyano-2-fluorobenzyl)oxy)pyridin-2-yl)piperidin-1-yl)methyl)-4-(1-fluoroethoxy)-1-methyl-1H-benzo[d]imidazole-6-carboxylic acid] |
| 6.00 to 7.00 | > 85 | O=C(O)c1ccc2c(nc(CN3CCC(c4cccc(OCc5ccc(Cl)cc5F)n4)CC3)n2C[C@@H]2CCO2)c1OC(F)F [Compound 191, (S)-2-((4-(6-((4-chloro-2-fluorobenzyl)oxy)pyridin-2-yl)piperidin-1-yl)methyl)-4-(difluoromethoxy)-1-(oxetan-2-ylmethyl)-1H-benzo[d]imidazole-5-carboxylic acid] |
| 7.00 to 8.00 | > 85 | Cn1c(CN2CCC(c3cccc(OCc4ccc(C(F)F)cc4F)n3)CC2)nc2c(OC(F)F)cc(C(=O)O)cc21 [Compound 201, 4-(Difluoromethoxy)-2-((4-(6-((4-(difluoromethyl)-2-fluorobenzyl)oxy)pyridin-2-yl)piperidin-1-yl)methyl)-1-methyl-1H-benzo[d]imidazole-6-carboxylic acid] |
